One compound from ChEMBL document CHEMBL5728191, “Inhibitors of cyclin-dependent kinase 7 (CDK7)” (2020) can be followed below.

Each structure is given as a SMILES string. Bounds are passed on as bounds.

This test addresses CDK7/Cyclin H/MNAT1 (Homo sapiens, UniProt P50613). Put plainly: Inhibition of Kinase Activity: Compounds of the invention were assayed for activity against a variety of different kinases. In kind it is protein-complex assay.

As usually defined, the IC50 is the concentration needed to halve the response being measured. Read a high IC50 as a need for much substance.

CDK7/Cyclin H/MNAT1, sequence (P51946 whole entry): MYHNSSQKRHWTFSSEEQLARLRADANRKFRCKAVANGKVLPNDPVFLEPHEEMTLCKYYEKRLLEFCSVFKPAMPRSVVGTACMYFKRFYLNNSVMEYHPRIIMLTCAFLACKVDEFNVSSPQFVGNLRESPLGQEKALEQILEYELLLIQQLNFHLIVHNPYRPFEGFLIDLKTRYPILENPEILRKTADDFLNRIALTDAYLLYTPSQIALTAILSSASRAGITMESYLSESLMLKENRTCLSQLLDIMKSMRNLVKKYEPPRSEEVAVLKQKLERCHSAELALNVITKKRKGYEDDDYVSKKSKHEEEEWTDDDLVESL
CDK7/Cyclin H/MNAT1, sequence (P50613 whole entry): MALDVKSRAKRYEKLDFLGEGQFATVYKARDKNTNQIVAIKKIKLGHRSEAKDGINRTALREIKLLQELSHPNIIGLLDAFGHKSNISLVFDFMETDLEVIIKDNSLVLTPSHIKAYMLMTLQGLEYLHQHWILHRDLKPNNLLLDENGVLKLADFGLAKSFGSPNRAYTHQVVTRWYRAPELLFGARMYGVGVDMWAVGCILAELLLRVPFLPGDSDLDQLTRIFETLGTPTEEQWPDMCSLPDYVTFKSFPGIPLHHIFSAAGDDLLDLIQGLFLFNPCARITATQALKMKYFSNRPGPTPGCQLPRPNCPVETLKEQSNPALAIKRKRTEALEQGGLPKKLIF
CDK7/Cyclin H/MNAT1, sequence (P51948 whole entry, further chain): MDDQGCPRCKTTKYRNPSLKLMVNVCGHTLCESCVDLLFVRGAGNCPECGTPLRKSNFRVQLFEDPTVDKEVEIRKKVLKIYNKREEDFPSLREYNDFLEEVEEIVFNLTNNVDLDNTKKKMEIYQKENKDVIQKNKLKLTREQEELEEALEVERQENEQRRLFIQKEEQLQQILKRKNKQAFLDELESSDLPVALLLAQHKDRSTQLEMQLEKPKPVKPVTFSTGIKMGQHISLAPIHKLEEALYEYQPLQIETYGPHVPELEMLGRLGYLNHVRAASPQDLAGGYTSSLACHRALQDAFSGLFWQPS

Compound `C=CC(=O)Nc1ccc(C(=O)Nc2nn(C)c3c2CN(C(=O)NC(C)CN(C)C)C3(C)C)cc1` (stereo unspecified) yielded an IC50 of over 500 nM.
